# Source: patent publication US11603377B2, “MTORC1 modulators and uses thereof” (Aeovian Pharmaceuticals, Inc., priority 2020, dated 2023)
# Key:
# [1] = molecular target: FKBP12 (Homo sapiens (Human), UniProt P62942); assay: SPR assay to determine binding affinity to FKBP12 (direct binding); conditions: immobilized biotinylated avi-FKBP12
# Description: SPR Assay to Determine Binding Affinity to FKBP12.
# Biotinylated avi-FKBP12 was immobilized on a streptavidin chip (Cytiva Series S SA) using a Biacore 8K or 8 k+ (Cytiva). To achieve an immobilization level of 1000 RU, 2 μg/ml biotinylated avi-FKBP12 were injected for 100 sec at a flow rate of 10 μl/min. Rapalogs were diluted in DMSO to 100× working concentration. Each Rapalog was 100-fold diluted in 50 mM HEPES pH 7.5, 150 mM NaCl, 2 mM MgCl2, 1 mM DTT, 0.05% Tween-20 and a serial dilution prepared (9 concentrations, 3-fold dilutions, 0.08-500 nM). […] The compound dilutions were then injected at 100 uL/min for 120 seconds contact time in sequence with increasing concentrations. Dissociation was monitored for 3600 seconds. 50 mM HEPES pH 7.5, 150 mM NaCl, 2 mM MgCl2, 1 mM DTT, 0.05% Tween-20, 1% DMSO was used as running buffer. The single-cycle kinetics data were fit to a 1:1 binding model to measure the association rate ka (1/Ms), the dissociation rate kd (1/s) and the affinity Kd (M).
# [2] = molecular target: FKBP51 (Homo sapiens (Human), UniProt Q13451); assay: SPR assay to determine binding affinity to FKBP51 (direct binding); conditions: immobilized biotinylated avi-FKBP51
# FKBP51, sequence (Q13451 whole entry): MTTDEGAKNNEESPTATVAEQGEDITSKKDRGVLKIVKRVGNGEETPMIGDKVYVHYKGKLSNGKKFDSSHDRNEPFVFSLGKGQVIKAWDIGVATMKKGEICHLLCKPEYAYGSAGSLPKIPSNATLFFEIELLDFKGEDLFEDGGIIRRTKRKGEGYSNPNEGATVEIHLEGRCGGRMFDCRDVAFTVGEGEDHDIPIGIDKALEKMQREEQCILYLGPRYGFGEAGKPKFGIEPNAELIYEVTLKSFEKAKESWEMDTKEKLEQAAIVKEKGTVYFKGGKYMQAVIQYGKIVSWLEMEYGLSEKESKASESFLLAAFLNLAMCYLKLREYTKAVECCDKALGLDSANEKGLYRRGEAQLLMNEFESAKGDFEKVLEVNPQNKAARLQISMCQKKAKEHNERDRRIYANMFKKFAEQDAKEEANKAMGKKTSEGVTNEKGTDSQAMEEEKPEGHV
# Description: Example 29: SPR Assay to Determine Binding Affinity to FKBP51
# Biotinylated avi-FKBP51 was immobilized on a streptavidin chip (Cytiva Series S SA) using a Biacore 8K or 8 k+ (Cytiva). To achieve an immobilization level of 2000 RU, 3 μg/ml biotinylated avi-FKBP51 were injected for 360 sec at a flow rate of 10 μl/min. Rapalogs were diluted in DMSO to 100× working concentration. Each Rapalog was 100-fold diluted in 50 mM HEPES pH 7.5, 150 mM NaCl, 2 mM MgCl2, 1 mM DTT, 0.05% Tween-20 and a serial dilution prepared (8 concentrations, 3-fold dilutions, 0.5-1000 nM). […] The compound dilutions were then injected at 100 uL/min for 120 seconds contact time and with 3600 seconds dissociation time with increasing concentrations. 50 mM HEPES pH 7.5, 150 mM NaCl, 2 mM MgCl2, 1 mM DTT, 0.05% Tween-20, 1% DMSO was used as running buffer. Multi-cycle kinetics data were fit to a 1:1 binding model to measure the association rate ka (1/Ms), the dissociation rate kd (1/s) and the affinity Kd (M).
# [3] = molecular target: FKBP12 / FRB ternary complex (Homo sapiens (Human), UniProt P42345+P62942); assay: SPR assay to characterize ternary complex formation with FKBP12 (FRB binding to rapalog-saturated FKBP12); conditions: FRB dilutions with 100 nM rapalog on immobilized FKBP12
# Description: Example 30: SPR Assay to Characterize Ternary Complex Formation with FKBP12
# (§1) Biotinylated avi-FKBP12 was immobilized on a streptavidin chip (Cytiva Series S SA) using a Biacore 8K or 8 k+ (Cytiva). To achieve an immobilization level of 100 RU, 0.3 μg/ml biotinylated avi-FKBP12 were injected for 80 sec at a flow rate of 10 μl/min. Serial dilution of FRB was prepared (12 concentrations, 3-fold dilutions, 0.00011-20 μM) and supplemented with 100 nM of rapalog. A-B-A injection mode was used to ensure saturation immobilized FKBP12 with respective rapalog. 100 nM solution of the respective rapalog was injected before FRB injection for 120 sec and during dissociation for 420 sec. The FRB dilutions were then injected 120 seconds contact time with increasing concentrations. […] 50 mM HEPES pH 7.5, 150 mM NaCl, 2 mM MgCl2, 1 mM DTT, 0.05% Tween-20, 1% DMSO was used as running buffer at a flow rate of 30 μl/min. The multi-cycle kinetics data were fit to a 1:1 binding model to measure the association rate ka (1/Ms), the dissociation rate kd (1/s) and the affinity Kd (M). In case of fast association and dissociation, steady state affinity analysis following the law of mass action was used to determine the affinity Kd (M).
# [4] = molecular target: mTORC1 (Homo sapiens (Human), UniProt P42345+P62942); assay: mTORC1 inhibition, AlphaLISA of Phospho-p70 S6 kinase (p70S6K pT389) in PC-3 cells; type: cell-based; conditions: inhibition of p70S6K pT389 levels
# [5] = molecular target: mTORC2 (Homo sapiens (Human), UniProt P42345+P62942); assay: mTORC2 inhibition, AlphaLISA of Phospho-AKT (pAKT pS473) in PC3 cells; type: cell-based
# Description: Example 32: mTORC1 Inhibition, mTORC2 Inhibition, Cell Lysis, AlphaLISA Experiments, and Data Analysis
# mTORC2 inhibition was determined via analysis of phosphorylation level of Phospho-AKT (pAKT pS473) with the corresponding AlphaLISA kit (PerkinElmer, Alpha SF Ultra™ Multiplex p-AKT1/2/3(Ser473)/Total AKT1). PC3 cells were plated on 96 well plates in assay medium (DMEM: Ham's F12, basic (CLS Cell Lines Service GmbH, Cat #820400a), supplemented with additional 10% FBS at 1.20E+06 cells/mL and incubated over-night at 37° C., 5% CO2. On the following day, cells were treated with assay medium (10% FBS) containing increasing compound concentrations (12 points at 3-fold dilutions) and incubated for 6 hours at 37° C., 5% CO2. Thereafter, medium was aspirated and cells were rinsed with PBS. In the following, cells were treated with compound dilutions in starvation medium (DMEM: Ham's F12, basic; without FBS) for further 18 h at 37° C., 5% CO2. Then, immediately prior to cell lysis, cells were treated with 12% FBS for 15 min.
# After performing experiments according to mTORC1 and mTORC2 protocols, cells were harvested in lysis buffer supplied with the AlphaLISA kits, additionally enriched with Roche cOmplete™ Protease Inhibitor Cocktail (Cat #CO-RO). Thus, cells were lysed using 50 μL of the lysis buffer and incubated for 60 min at 4° C. while shaking. After centrifugation at 4000 rpm for 5 min, experiments were performed according to the AlphaLISA manufacturer's protocol.
# Ten microliters of cell lysates were mixed with the acceptor mix. After incubation for 2 h at room temperature, the donor mix was added. After additional incubation at room temperature for 2 hours, AlphaLISA signal was read on PHERAstar® FSX (BMG Labtech) with AlphaPLEX module.
# EC50 values were calculated by ExcelFit standard algorithm.
# [6] = molecular target: FKBP51 / FRB ternary complex (Homo sapiens (Human), UniProt P42345+Q13451); assay: SPR assay to characterize ternary complex formation with FKBP51 (FRB binding to rapalog-saturated FKBP51); conditions: FRB dilutions with 100 nM rapalog on immobilized FKBP51
# Description: Example 31: SPR Assay to Characterize Ternary Complex Formation with FKBP51
# as §1, with “Biotinylated avi-FKBP51” for “Biotinylated avi-FKBP12”, “of 200” for “of 100”, “RU, 0.6” for “RU, 0.3”, “biotinylated avi-FKBP51” for “biotinylated avi-FKBP12”, “for 150” for “for 80”
# FKBP12, sequence (P62942 whole entry): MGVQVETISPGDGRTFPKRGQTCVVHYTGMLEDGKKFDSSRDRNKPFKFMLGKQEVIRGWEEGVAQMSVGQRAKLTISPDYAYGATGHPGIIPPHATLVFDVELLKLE
Kd [1],Kd [2],Kd [3],IC50 [4],Kd [6],"inhibition at 1 µM ([5]; PC-3, read-out: mTORC2 % inhibition at 1 uM)",SMILES,mTORC2 % inhibition at 1 uM [5]
0.3 to 1 nM,> 100 nM,< 300 nM,0.1 to 0.8 nM,< 300 nM,–,CO[C@@H]1C[C@H](C[C@@H](C)[C@@H]2CC(=O)[C@H](C)/C=C(\C)[C@@H](O)[C@@H](OC)C(=O)[C@H](C)C[C@H](C)/C=C/C=C/C=C(\C)[C@@H](OC3CC3)C[C@@H]3CC[C@@H](C)[C@@](O)(O3)C(=O)C(=O)N3CCCC[C@H]3C(=O)O2)CC[C@H]1OCCCS(C)(=O)=O [Compound 64],C (C≥40% and less than 60% inhibition at 1 uM)
> 1 nM,> 100 nM,< 300 nM,> 0.8 nM,> 800 nM,–,CO[C@@H]1C[C@H](C[C@@H](C)[C@@H]2CC(=O)[C@H](C)/C=C(\C)[C@@H](O)[C@@H](OC)C(=O)[C@H](C)C[C@H](C)/C=C/C=C/C=C(\C)[C@@H](OCC3CCC3)C[C@@H]3CC[C@@H](C)[C@@](O)(O3)C(=O)C(=O)N3CCCC[C@H]3C(=O)O2)CC[C@H]1OCCCS(C)(=O)=O [Compound 62],C (C≥40% and less than 60% inhibition at 1 uM)
–,< 10 nM,–,–,–,≥ 60%,"CO[C@H]1C[C@@H]2CC[C@@H](C)[C@@](O)(O2)C(=O)C(=O)N2CCCC[C@H]2C(=O)O[C@H]([C@H](C)C[C@@H]2CC[C@@H](O)[C@H](OC)C2)CC(=O)[C@H](C)/C=C(\C)[C@@H](O)[C@@H](OC)C(=O)[C@H](C)C[C@H](C)/C=C/C=C/C=C/1C [Rapamycin, reference compound]",–
> 1 nM,–,300 to 800 nM,> 0.8 nM,> 800 nM,–,CO[C@@H]1C[C@H](C[C@@H](C)[C@@H]2CC(=O)[C@H](C)/C=C(\C)[C@@H](O)[C@@H](OC)C(=O)[C@H](C)C[C@H](C)/C=C/C=C/C=C(\C)[C@H](OCC3CCC3)C[C@@H]3CC[C@@H](C)[C@@](O)(O3)C(=O)C(=O)N3CCCC[C@H]3C(=O)O2)CC[C@H]1OCCCS(C)(=O)=O [Compound 63],C (C≥40% and less than 60% inhibition at 1 uM)

# More lines, now with the values behind:
SMILES,Kd [1],Kd [2],Kd [3],IC50 [4],Kd [6],"inhibition at 1 µM ([5]; PC-3, read-out: mTORC2 % inhibition at 1 uM)",mTORC2 % inhibition at 1 uM [5]
CO[C@@H]1C[C@H](C[C@@H](C)[C@@H]2CC(=O)[C@H](C)/C=C(\C)[C@@H](O)[C@@H](OC)C(=O)[C@H](C)C[C@H](C)/C=C/C=C/C=C(\C)[C@H](NS(=O)(=O)CC3CCCCC3)C[C@@H]3CC[C@@H](C)[C@@](O)(O3)C(=O)C(=O)N3CCCC[C@H]3C(=O)O2)CC[C@H]1O [Compound 19],0.3 to 1 nM,> 100 nM,> 800 nM,> 0.8 nM,> 800 nM,–,B (B>20% and less than 40% inhibition at 1 uM)
COC1CC(CC(C)C2CC(=O)C(C)C=C(C)C(O)C(OC)C(=O)C(C)CC(C)C=CC=CC=C(C)C(OCC3CCC3)CC3CCC(C)C(O)(O3)C(=O)C(=O)N3CCCCC3C(=O)O2)CCC1O (stereo not drawn) [Compound 36],< 0.3 nM,> 100 nM,300 to 800 nM,0.1 to 0.8 nM,> 800 nM,–,B (B>20% and less than 40% inhibition at 1 uM)
COCCOCCOCCS(=O)(=O)N[C@H]1C[C@@H]2CC[C@@H](C)[C@@](O)(O2)C(=O)C(=O)N2CCCC[C@H]2C(=O)O[C@H]([C@H](C)C[C@@H]2CC[C@@H](O)[C@H](OC)C2)CC(=O)[C@H](C)/C=C(\C)[C@@H](O)[C@@H](OC)C(=O)[C@H](C)C[C@H](C)/C=C/C=C/C=C/1C [Compound 25],< 0.3 nM,10 to 100 nM,300 to 800 nM,0.1 to 0.8 nM,> 800 nM,–,A (A ≤20% inhibition at 1 micro Molar (uM))
CO[C@@H]1C[C@H](C[C@@H](C)[C@@H]2CC(=O)[C@H](C)/C=C(\C)[C@@H](O)[C@@H](OC)C(=O)[C@H](C)C[C@H](C)/C=C/C=C/C=C(\C)[C@H](NS(=O)(=O)CC3CCCC3)C[C@@H]3CC[C@@H](C)[C@@](O)(O3)C(=O)C(=O)N3CCCC[C@H]3C(=O)O2)CC[C@H]1O [Compound 22],< 0.3 nM,> 100 nM,> 800 nM,0.1 to 0.8 nM,> 800 nM,–,A (A ≤20% inhibition at 1 micro Molar (uM))
CO[C@@H]1C[C@H](C[C@@H](C)[C@@H]2CC(=O)[C@H](C)/C=C(\C)[C@@H](O)[C@@H](OC)C(=O)[C@H](C)C[C@H](C)/C=C/C=C/C=C(\C)[C@@H](OC3CCS(=O)(=O)C3)C[C@@H]3CC[C@@H](C)[C@@](O)(O3)C(=O)C(=O)N3CCCC[C@H]3C(=O)O2)CC[C@H]1O (stereo partly drawn) [Compound 26],< 0.3 nM,> 100 nM,> 800 nM,> 0.8 nM,> 800 nM,–,A (A ≤20% inhibition at 1 micro Molar (uM))
COC1CC(CC(C)C2CC(=O)C(C)C=C(C)C(O)C(OC)C(=O)C(C)CC(C)C=CC=CC=C(C)C(OCC3CCC3)CC3CCC(C)C(O)(O3)C(=O)C(=O)N3CCCCC3C(=O)O2)CCC1O (stereo not drawn) [Compound 37],> 1 nM,–,300 to 800 nM,> 0.8 nM,> 800 nM,–,B (B>20% and less than 40% inhibition at 1 uM)
